The results in this text go back to patent US11524966B1 (Valo Early Discovery, Inc., priority 2017, dated 2022).

The target of this assay is T1, USP28 (His-tagged USP28-FL-mammalian) (Homo sapiens, UniProt Q96RU2).
T1 construct: Expression of USP28 (1-1077)-TEV-6*His (pTT5 vector); made in house; host or cells: Expi293f cells (pTT5 vector)
T1 sequence (Q96RU2 1-1077): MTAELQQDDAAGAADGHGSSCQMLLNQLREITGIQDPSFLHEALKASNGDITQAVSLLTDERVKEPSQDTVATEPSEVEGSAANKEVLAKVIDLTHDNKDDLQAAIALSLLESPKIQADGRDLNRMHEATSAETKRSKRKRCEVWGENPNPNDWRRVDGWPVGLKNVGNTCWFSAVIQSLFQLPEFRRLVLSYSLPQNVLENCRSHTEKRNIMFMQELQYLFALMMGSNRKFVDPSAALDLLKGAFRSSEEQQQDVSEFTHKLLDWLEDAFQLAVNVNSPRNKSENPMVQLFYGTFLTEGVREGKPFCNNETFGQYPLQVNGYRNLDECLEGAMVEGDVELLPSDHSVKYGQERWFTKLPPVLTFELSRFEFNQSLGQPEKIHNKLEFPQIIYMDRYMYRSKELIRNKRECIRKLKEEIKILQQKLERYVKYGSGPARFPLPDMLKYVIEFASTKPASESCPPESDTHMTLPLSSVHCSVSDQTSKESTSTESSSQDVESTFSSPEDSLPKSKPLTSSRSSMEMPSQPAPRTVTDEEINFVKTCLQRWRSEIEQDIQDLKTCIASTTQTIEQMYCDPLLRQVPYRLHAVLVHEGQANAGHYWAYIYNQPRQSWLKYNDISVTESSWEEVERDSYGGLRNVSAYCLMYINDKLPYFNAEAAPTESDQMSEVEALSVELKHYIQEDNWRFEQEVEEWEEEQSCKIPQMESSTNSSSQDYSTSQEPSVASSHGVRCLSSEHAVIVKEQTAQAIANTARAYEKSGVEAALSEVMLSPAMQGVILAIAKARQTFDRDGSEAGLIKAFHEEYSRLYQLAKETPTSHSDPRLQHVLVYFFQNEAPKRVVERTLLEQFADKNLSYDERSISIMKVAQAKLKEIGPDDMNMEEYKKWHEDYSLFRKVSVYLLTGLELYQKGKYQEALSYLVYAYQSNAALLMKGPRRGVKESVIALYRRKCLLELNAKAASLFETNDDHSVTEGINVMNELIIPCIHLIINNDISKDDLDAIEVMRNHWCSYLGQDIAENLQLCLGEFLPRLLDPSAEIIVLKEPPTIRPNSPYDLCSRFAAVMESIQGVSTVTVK
The assay is described as follows: Ubiquitin-Rhodamine 110 Assay for USP28 Activity, Example A-1(a). Format: biochemical. Conditions: Ubiquitin-Rhodamine 110 assay, Example A-1(a); read-out: USP28 A-1(a) IC50 range. Here is the method: Example A-1(a): Biochemical Assay: Ubiquitin-Rhodamine 110 Assay for USP28 Activity
The assay was performed in a final volume of 9 μL in assay buffer containing 20 mM Tris-HCl (pH 8.0, (1M Tris-HCl, pH 8.0 solution; Corning 46-031-CM)), 3 mM BME (2-Mercaptoethanol; Sigma 63689-25ML-F), 0.03% BGG (0.22 μM filtered, Sigma, G7516-25G), and 0.01% Triton X-100 (Sigma, T9284-10L). Nanoliter quantities of 10-point, 3-fold serial dilution in DMSO was pre-dispensed into 1536 assay plates (Corning, #3724BC) for a final test concentration of 25 μM to 1.3 nM, top to lowest dose, respectively. Enzyme USP28, construct His-tagged USP28-FL-mammalian, (protein expression and purification procedure described below). Concentration and incubation times were optimized for the maximal signal-to-background while maintaining initial velocity conditions at a fixed substrate concentration. The final concentration of the enzyme in the assay was 75 μM. Final substrate (Ub-Rh110; Ubiquitin-Rhodamine 110, UbiQ-126) concentration was 25 nM with [Ub-Rh110]<<Km. 3 μL of 2× enzyme was added to assay plates (pre-stamped with compound) preincubated with […] for 30 minutes and then 3 μL of 2×Ub-Rh110 was added to assay plates. Plates were incubated for 45 minutes at room temperature before addition of 3 μL of stop solution (final concentration of 10 mM citric acid (Sigma, 251275-500G)). Fluorescence was read on the Envision (Excitation at 485 nm and Emission at 535 nm; Perkin Elmer) or on the PheraSTAR (Excitation at 485 nm and Emission at 535 nm; BMG Labtech).
Procedure for the Protein Expression and Purification for Construct His-Tagged USP28-FL-Mammalian
Expression of USP28 (1-1077)-TEV-6*His (pTT5 vector) was carried out in Expi293f cells (sequence derived from uniprot ID: Q96RU2-1). Cells were re-suspended in lysis buffer B 50 mM Bicine, pH 8.0, 20 mM NaCl, 5% glycerol, 0.1% CHAPS, 5 mM β-ME, 1 mM PMSF, 1 ug/ml Leupeptin, 1 ug/ml Pepstatin) and lysed by sonication. Insoluble material was removed by centrifugation and the supernatant was loaded onto a Ni-NTA column (GE Healthcare) equilibrated with Ni Buffer A (50 mM Bicine, pH 8.0, 20 mM NaCl, 5% glycerol, 0.1% CHAPS, 5 mM β-ME.) and washed with Ni Buffer A+20 mM imidazole until A280 reached baseline. The protein was eluted with Ni Buffer B (50 mM Bicine, pH 8.0, 20 mM NaCl, 5% glycerol, 0.1% CHAPS, 5 mM β-ME, 300 mM imidazole.). The protein was further purified using a Superdex™ 200 10/300 GL column (GE Healthcare) equilibrated with 50 mM Bicine, pH 8.0, 20 mM NaCl, 5% glycerol, 0.1% CHAPS, 5 mM β-ME. The protein was concentrated to 2.5 mg ml^−1, flash-frozen in liquid N2 and stored at −80° C.
For assay formats Example A-1(a), A-1(b), and A-2, data were reported as percent inhibition compared with control wells based on the following equation: % inh=1−((FLU−AveLow)/(AveHigh−AveLow)) where FLU=measured Fluorescence, AveLow=average Fluorescence of no enzyme control (n=16), and AveHigh=average Fluorescence of DMSO control (n=16). IC50 values were determined by curve fitting of the standard 4 parameter logistic fitting algorithm included in the Activity Base software package: IDBS XE Designer Model 205. Data is fitted using the Levenburg Marquardt algorithm.

`CO[C@H]1CN(c2ncc3c(n2)CC[C@@H](NC(=O)c2sc4nc(C)cc(C)c4c2N)C3)C[C@@H]1N` [Example 274, 3-amino-N-[(6R)-2-[(3S,4S)-3-amino-4-methoxypyrrolidin-1-yl]-5,6,7,8-tetrahydroquinazolin-6-yl]-4,6-dimethylthieno[2,3-b]pyridine-2-carboxamide]: the IC50 lay within 200 to 2000 nM.

Consider `CO[C@@]12CCN[C@H]1CN(c1ccc3c(c1)OC[C@H](NC(=O)c1sc4nc(C)ccc4c1N)C3)C2` [Example 289, N-[(3R)-7-[(3aR,6aS)-3a-methoxy-octahydropyrrolo[2,3-c]pyrrol-5-yl]-3,4-dihydro-2H-1-benzopyran-3-yl]-3-amino-6-methylthieno[2,3-b]pyridine-2-carboxamide], for which the IC50 was 1 to 50 nM.

Regarding `CO[C@]12CCN[C@@H]1CN(c1ccc3c(c1)OC[C@H](NC(=O)c1sc4nc(C)ccc4c1N)C3)C2` [Example 290, N-[(3R )-7-[(3aS,6aR)-3a-methoxy-octahydropyrrolo[2,3-c]pyrrol-5-yl]-3,4-dihydro-2H-1-benzopyran-3-yl]-3-amino-6-methylthieno[2,3-b]pyridine-2-carboxamide], the half-inhibitory concentration (IC50) fell in the range of 1 to 50 nM.

In the case of `Cc1ccc2c(N)c(C(=O)N[C@H]3CCc4nc(N5C[C@@H]6CCN[C@H](C5)C6(F)F)ccc4C3)sc2n1` [Example 367, 3-amino-N-[(6S)-2-[(1R,5S)-9,9-difluoro-2,7-diazabicyclo[3.3.1]nonan-7-yl]-5,6,7,8-tetrahydroquinolin-6-yl]-6-methylthieno[2,3-b]pyridine-2-carboxamide], the IC50 was in the range of 1 to 50 nM.

`Cc1ccc2c(N)c(C(=O)N[C@H]3CCc4nc(N5C[C@H]6CCN[C@@H](C5)C6(F)F)ccc4C3)sc2n1` [Example 368, 3-amino-N-[(6S)-2-[(1S,5R)-9,9-difluoro-2,7-diazabicyclo[3.3.1]nonan-7-yl]-5,6,7,8-tetrahydroquinolin-6-yl]-6-methylthieno[2,3-b]pyridine-2-carboxamide]: the IC50 was in the range of 1 to 50 nM.

For the compound `CCn1ccc2cc(C(=O)N[C@H]3CCc4nc(N5C[C@H](C(F)F)[C@@H](N)C5)ccc4C3)cnc21` [Example 370, N-[(6S)-2-[(3R,4S)-3-amino-4-(difluoromethyl)pyrrolidin-1-yl]-5,6,7,8-tetrahydroquinolin-6-yl]-1-ethyl-1H-pyrrolo[2,3-b]pyridine-5-carboxamide], the half-maximal inhibitory concentration (IC50) was in the range of 200 to 2000 nM.

On to `CCn1ccc2cc(C(=O)N[C@H]3CCc4nc(N5C[C@@H](N)[C@H](C(F)F)C5)ccc4C3)cnc21` [Example 371, N-[(6S)-2-[(3S,4R)-3-amino-4-(difluoromethyl)pyrrolidin-1-yl]-5,6,7,8-tetrahydroquinolin-6-yl]-1-ethyl-1H-pyrrolo[2,3-b]pyridine-5-carboxamide], for which the IC50 lay in the range of 200 to 2000 nM.

Take `CC(=O)N[C@@H]1CN(c2ccc3c(n2)CC[C@H](NC(=O)c2sc4nc(C)ccc4c2N)C3)C[C@H]1C(F)F` [Example 372, 3-amino-N-[(6S)-2-[(3R,4S)-3-(difluoromethyl)-4-acetamidopyrrolidin-1-yl]-5,6,7,8-tetrahydroquinolin-6-yl]-6-methylthieno[2,3-b]pyridine-2-carboxamide]: the IC50 lay in the range of 50 to 200 nM.

As for `COCC1(N)CN(c2ccc3c(c2)OC[C@H](NC(=O)c2sc4nc(C)ccc4c2N)C3)C1` [Example 373, 3-amino-N-[(3R)-7-[3-amino-3-(methoxymethyl)azetidin-1-yl]-3,4-dihydro-2H-1-benzopyran-3-yl]-6-methylthieno[2,3-b]pyridine-2-carboxamide], the IC50 was in the range of 1 to 50 nM.

As for `Cc1ccc2c(N)c(C(=O)N[C@H]3CCc4nc(N5CCN[C@H](C(F)F)C5)ccc4C3)sc2n1` [Example 374, 3-amino-N-[(6S)-2-[(3S)-3-(difluoromethyl)piperazin-1-yl]-5,6,7,8-tetrahydroquinolin-6-yl]-6-methylthieno[2,3-b]pyridine-2-carboxamide], the IC50 lay in the range of 50 to 200 nM.

For the compound `Cc1ccc2c(N)c(C(=O)N[C@H]3CCc4nc(N5CCN[C@@H](C(F)F)C5)ccc4C3)sc2n1` [Example 375, 3-amino-N-[(6S)-2-[(3R)-3-(difluoromethyl)piperazin-1-yl]-5,6,7,8-tetrahydroquinolin-6-yl]-6-methylthieno[2,3-b]pyridine-2-carboxamide], the IC50 is 50 to 200 nM.

Turning to `CN[C@H]1CN(c2ccc3c(n2)CC[C@H](NC(=O)c2sc4nc(C)ccc4c2N)C3)C[C@@H]1C(F)F` [Example 376, 3-amino-N-[(6S)-2-[(3S,4R)-3-(difluoromethyl)-4-(methylamino)pyrrolidin-1-yl]-5,6,7,8-tetrahydroquinolin-6-yl]-6-methylthieno[2,3-b]pyridine-2-carboxamide], the IC50 lay within 50 to 200 nM.

On to `CN[C@@H]1CN(c2ccc3c(n2)CC[C@H](NC(=O)c2sc4nc(C)ccc4c2N)C3)C[C@H]1C(F)F` [Example 377, 3-amino-N-[(6S)-2-[(3R,4S)-3-(difluoromethyl)-4-(methylamino)pyrrolidin-1-yl]-5,6,7,8-tetrahydroquinolin-6-yl]-6-methylthieno[2,3-b]pyridine-2-carboxamide], for which the concentration for half-maximal inhibition (IC50) is 50 to 200 nM.

Consider `Cc1ccc2c(N)c(C(=O)N[C@H]3COc4nc(N5C[C@H](C(F)F)[C@@H](N)C5)ccc4C3)sc2n1` [Example 378, 3-amino-N-[(3R)-7-[(3R,4S)-3-amino-4-(difluoromethyl)pyrrolidin-1-yl]-2H,3H,4H-pyrano[2,3-b]pyridin-3-yl]-6-methylthieno[2,3-b]pyridine-2-carboxamide], for which the IC50 was 50 to 200 nM.

Consider `Cc1ccc2c(N)c(C(=O)N[C@H]3COc4nc(N5C[C@@H](N)[C@H](C(F)F)C5)ccc4C3)sc2n1` [Example 379, 3-amino-N-[(3R)-7-[(3S,4R)-3-amino-4-(difluoromethyl)pyrrolidin-1-yl]-2H,3H,4H-pyrano[2,3-b]pyridin-3-yl]-6-methylthieno[2,3-b]pyridine-2-carboxamide], for which the IC50 was in the range of 200 to 2000 nM.

By IC50 is commonly meant the concentration that gives 50% inhibition.
